Assay results reported in patent US9132131B2, “Use of adenosine A3 receptor agonists for treatment of neuropathic pain” (Saint Louis University, priority 2011, dated 2015).

Legend:
[1] = system: acute nociception (hot plate latency); assay: Hot plate assay for acute nociception; assay type: in vivo, mice; settings: 0.5 μmol/kg
Method: (§1) Tail flick and hot plate assay in mice for acute nociception. The tail flick test, which measures latency(s) of tail withdrawal from a noxious radiant heat source (Ugo Basile; model number 37360) was used to measure thermal nociceptive sensitivity in mice with baseline latencies of 3-5 seconds and a cut-off time of 15 seconds to prevent tissue injury. Tail flick latencies were taken before and at 30, 60 and 120 minutes after i.p. injection of IB-MECA, MRS1898 (0.5 μmol/kg) or its vehicle (0.1% DMSO in saline). For the hot plate test, nociceptive thresholds were determined as previously reported by our group by measuring latencies (in seconds) of mice placed in a transparent glass cylinder on a hot plate maintained at 52° C.. Responses indicative of nociception included intermittent lifting and/or licking of the hindpaws or escape behavior. Hot plate latencies were taken in mice from all groups before and after drug administration. A cut-off latency of 15 seconds was employed to prevent tissue damage.

[2] = system: SKBR3 breast cancer cells; assay: MTT cell survival assay, SKBR3; assay type: cell-based, human
Method: Cells were cultured and assayed in DMEM (SKBR3; human breast cancer cells), L15 (SW480; human colon cancer cells) or RPMI […] (RPMI 8226; human multiple myeloma cells) supplemented with heat-denatured 10% FBS and penicillin/streptomycin at 37° C., 0% (SW480) or 5% CO2 (SKBR3 and RPMI 8226), 95% humidity. The antitumor activities of these agents were measured in cells (6.25×10^4 cells/well) cultured overnight in 24-well plates (SKBR3 and SW480; BD Biosciences) or 12 mm×7.5 mm culture tubes (RPMI 8226; BD Biosciences) in complete media. […] Two naïve control wells were included as a control for 100% survival. Cell survival was determined using a MTT (3-(4,5-dimethylthiazol-2-yl)-2,5-diphenyltetrazolium bromide) assay adapted from a previously described assay. Cells were incubated with MTT (500 μg/ml) for 75 minutes at 37° C., 0% or 5% CO2, 95% humidity, removing the media and dissolving the tetrazolium crystals in isopropanol. […] The antitumor effects of IB-MECA alone were determined as % Survivability=(A560-570 nm of chemotherapeutic vehicle+IB-MECA)/(mean A560-570 nm of the naïve control wells)×100. The LD50 of each chemotherapeutic agent+IB-MECA or its vehicle was calculated using three-parameter non-linear analysis using % Survivability=(A560-570 nm of chemotherapeutic+IB-MECA or its vehicle)/(mean A560-570 nm chemotherapeutic vehicle+vehicle of IB-MECA)×100. The top and bottom plateaus were constrained using GraphPad Prism v5.03 (GraphPad Software, Inc.).

[3] = system: acute nociception (tail flick latency); assay: Tail flick assay for acute nociception; assay type: in vivo, mice; settings: IB-MECA, MRS1898 0.5 μmol/kg i.p. at 30, 60, 120 minutes; morphine 35 μmol/kg s.c. positive control
Method: as §1

## CNC(=O)[C@H]1O[C@@H](n2cnc3c(NCc4cccc(I)c4)ncnc32)[C@H](O)[C@@H]1O [IB-MECA, N^6-(3-iodobenzyl)-adenosine-5′-N-methyluronamide]
[1]
  effect on the hot plate: had no effect
[2]; IB-MECA 10 nM, human breast, colon and multiple myeloma cancer cells
  effect on the antitumor effects of paclitaxel, oxaliplatin or bortezomib: did not diminish
[2]; IB-MECA 10 nM, stated for the cell lines tested (SKBR3, SW480, RPMI 8226)
  decrease in cell survival when used alone: < 20%
[2]; doses above 10 nM, all three cell lines
  effect of higher doses on the cell lines: direct antitumor effects
[3]
  effect on tail flick latency: lacked effect
